Reference: BindingDB's records for doi:10.1016/0960-894X(95)00135-G (1995)
pIC50: −log10 of the molar value.

Experiment: In vitro inhibitory activity against human neutrophil leukotriene B4 (LTB4) induced Chemotaxis

SMILES | pIC50
CC(Oc1ccc2c(c1)OC[C@H](Cc1ccccn1)[C@@H]2O)c1ccc2ccccc2n1 (stereo partly drawn) [(3S,4S)-3-Pyridin-2-ylmethyl-7-(1-quinolin-2-yl-ethoxy)-chroman-4-ol] | 4.85
CC(Oc1ccc2c(c1)OC[C@@H](Cc1ccccn1)[C@@H]2O)c1ccc2ccccc2n1 (stereo partly drawn) [(3R,4S)-3-Pyridin-2-ylmethyl-7-(1-quinolin-2-yl-ethoxy)-chroman-4-ol] | 6.66

Continued, values first:

pIC50 | SMILES
5.21 | C[C@H](Oc1ccc2c(c1)OC[C@@H](Cc1cccnc1)[C@@H]2O)c1ccc2ccccc2n1 [(3R,4S)-3-Pyridin-3-ylmethyl-7-((S)-1-quinolin-2-yl-ethoxy)-chroman-4-ol]
5.47 | C[C@@H](Oc1ccc2c(c1)OC[C@@H](Cc1cccnc1)[C@@H]2O)c1ccc2ccccc2n1 [(3R,4S)-3-Pyridin-3-ylmethyl-7-((R)-1-quinolin-2-yl-ethoxy)-chroman-4-ol]
4.42 | CC(Oc1ccc2c(c1)OC[C@H](Cc1cccnc1)[C@@H]2O)c1ccc2ccccc2n1 (stereo partly drawn) [(3S,4S)-3-Pyridin-3-ylmethyl-7-(1-quinolin-2-yl-ethoxy)-chroman-4-ol]
